Measurements as given in the NIST ThermoML archive (doi:10.1016/j.jct.2015.10.009).
± gives the expanded uncertainty stated by the source.

What was measured:
[1] = Liquid; for vapor or sublimation pressure: Closed cell (Static) method
[2] = refractive index (Na D-line) (dimensionless); settings: 298.15 K; 101.33 kPa; Liquid; Standard Abbe refractometry

SMILES: O=C=O [carbon dioxide]
- vapor or sublimation pressure ([1]; 272.78 K): 3476 ± 11 kPa
- vapor or sublimation pressure ([1]; 277.83 K): 3958 ± 12 kPa
- vapor or sublimation pressure ([1]; 282.87 K): 4487 ± 13 kPa
- vapor or sublimation pressure ([1]; 287.92 K): 5069 ± 13 kPa
- vapor or sublimation pressure ([1]; 292.95 K): 5705 ± 14 kPa
- vapor or sublimation pressure ([1]; 297.99 K): 6404 ± 16 kPa
- vapor or sublimation pressure ([1]; 303.03 K): 7176 ± 17 kPa

SMILES: CCCCCC [hexane]
- refractive index [2]: 1.3724 ± 0.0004
- mass density ([1]; 298.15 K, 101.33 kPa, Vibrating tube method): 655.241 ± 0.26 kg/m3

SMILES: FC(F)F [trifluoromethane]
- vapor or sublimation pressure ([1]; 267.81 K): 2176 ± 9 kPa
- vapor or sublimation pressure ([1]; 272.86 K): 2497 ± 9 kPa
- vapor or sublimation pressure ([1]; 277.9 K): 2881 ± 10 kPa
- vapor or sublimation pressure ([1]; 282.96 K): 3269 ± 10 kPa
- vapor or sublimation pressure ([1]; 287.99 K): 3707 ± 11 kPa
- vapor or sublimation pressure ([1]; 292.02 K): 4084 ± 11 kPa
- vapor or sublimation pressure ([1]; 293.04 K): 4180 ± 12 kPa
- vapor or sublimation pressure ([1]; 297.07 K): 4605 ± 12 kPa
